Experimental data: patent US10966995B2, “Use of secoisolariciresinol diglucosides (SDGS) and related compounds for protection against radiation and chemical damage” (THE TRUSTEES OF THE UNIVERSITY OF PENNSYLVANIA, priority 2014, dated 2021)

Legend:
[1] = test system: Plasmid DNA (pBR322); test: Plasmid DNA relaxation assay after γ-radiation; assay type: biochemical; conditions: for EC50: 25 Gy γ radiation, 25-250 μM tested, read-out: EC50 (effective concentration needed to prevent 50% of plasmid relaxation); for SC and OC forms of plasmid DNA: 25 Gy, 25, 50, 100 and 250 μM
Experimental: (§1) Plasmid DNA (pBR322) or calf thymus DNA samples with or without varying concentrations of SDG (R,R), SDG (S,S) and SDG (commercial) were exposed to γ-radiation with a Mark 1 cesium (Cs-137) irradiator (J. L. Shepherd, San Fernando, Calif.) at a dose rate of 1.7 Gy/min in phosphate buffered saline, pH 7.4 (PBS).
The effect of test compounds on radiation-induced strand breaks and supercoil (SC) to open coil (OC) conversion was determined using plasmid DNA (pBR322) (Life Technologies, Carlsbad, Calif.). Plasmid DNA (500 ng) in PBS (pH 7.4) was mixed with various concentrations (25-250 μM) of SDG (R,R), SDG (S,S) and SDG (commercial) and irradiated at 25 Gy in PBS. At 30 min post radiation exposure, samples were mixed with loading dye and subjected to agarose (1%) gel electrophoresis in TAE buffer (pH, 8.3) at 100 V. The gel was stained with ethidium bromide (0.5 μg/ml) for 40 min, washed for 20 min and then visualized on a UV trans-illuminator (Bio-Rad, Hercules, Calif.). The captured gel images were scanned and the density of the open coiled (OC) and super coiled (SC) plasmid DNA bands determined by Gel-doc image analyzer program. The density of the SC and OC plasmid DNA was expressed as % of the total density (OC+SC).

[2] = Hypochlorite scavenging with APF/HPF fluorescent probes (sodium hypochlorite); conditions: 0.5 μM; similar to silibinin
Experimental: The fluorescence of ROS probes APF and HPF in PBS was measured at excitation/emission at 490 nm/515 nm in presence of hypochlorite or after γ-radiation exposure. Data is expressed as relative fluorescence units (RFU).

[3] = test system: calf thymus DNA; test: Radiation-induced calf thymus DNA fragmentation assay; assay type: biochemical; conditions: for Radioprotection in calf thymus DNA fragmentation assay at low concentrations / High mol. wt. DNA form after radiation exposure / Radioprotective properties of SDG and metabolites compared: 50 Gy; for Radioprotection in calf thymus DNA fragmentation assay at low concentrations: 0.5-10 μM; for High mol. wt. DNA form after radiation exposure: 25, 50, 100 and 250 μM; for Radiation-induced generation of low mol. wt. fragments: at the concentration of 5 (unit not given); for Radiation induced generation of low mol. wt. fragments: at the lowest concentration tested; for Radioprotective properties of SDG and metabolites compared: 10 μM of each agent
Experimental: as §1
The effect of test compounds on radiation-induced strand breaks in DNA was determined using calf thymus DNA (Sigma, St. Louis, Mo.). DNA (500 ng) in PBS (pH 7.4) was mixed with varying concentrations (25-250 μM) of SDG (R,R), SDG (S,S) and SDG (commercial) and irradiated at 50 Gy for 30 min. A second series of experiments were performed at varying concentrations ranging from 0.5-10 μM. Samples were mixed with loading dye and subjected to agarose (1%) gel electrophoresis in TAE buffer (pH, 8.3) at 100 V. The gel was stained with ethidium bromide (0.5 μg/ml) for 40 min, washed for 20 min and then visualized on a UV trans-illuminator (Bio-Rad, Hercules, Calif.). The captured gel images were scanned and the density of the calf thymus DNA fragments was determined by Gel-Pro image analyzer program (Media Cybernetics, Silver Spring, Md.). The density of the low mol. wt (<6,000 bps) and the high mol. wt (>6,000 bps) fragments of calf thymus DNA was expressed as % of the total density (low mol wt.+high mol. wt.).

[4] = test system: human epithelial cells; test: BaP-induced DNA adduct formation; assay type: cell-based; conditions: given alone or in combination
Description: Similarly, SDG prevents genotoxic stress in human epithelial cells exposed to BaP. Exposure of cells to a potent carcinogen such as BaP, induces genotoxic stress as indicated by increased levels of p53 protein (FIG. 25). […] SDG also prevents oxidative DNA damages in human epithelial cells exposed to BaP. Exposure of cells to a potent carcinogen such as BaP, induces oxidative DNA damage as indicated by increased levels of gamma-H2AX, a marker for double-stranded DNA breaks (FIG. 26). […] Furthermore, SDG prevents DNA adduct formation in human epithelial cells exposed to BaP. Exposure of cells to a potent carcinogen such as BaP, induces the formation of DNA adducts (FIG. 27). DNA adducts are pieces of DNA covalently linked to a carcinogen and is directly linked to the development of malignancy. The DNA adduct levels is decreased by the presence of SDG or its metabolites ED and EL given alone or in combination.

[5] = test system: calf thymus DNA; test: Hypochlorite-induced damage to calf thymus DNA; assay type: biochemical; conditions: 0.5 mM hypochlorite; test agents 1.0 μM
Experimental: Calf thymus or plasmid DNA was incubated with hypochlorite for 2 hrs at 37° C. DNA samples were subjected to agarose (1%) gel electrophoresis and analyzed.

With `COc1cc(C[C@@H](CO[C@@H]2O[C@H](CO)[C@@H](O)[C@H](O)[C@H]2O)[C@H](CO[C@@H]2O[C@H](CO)[C@@H](O)[C@H](O)[C@H]2O)Cc2ccc(O)c(OC)c2)ccc1O` [SDG (R,R), secoisolariciresinol diglucoside] the EC50 [1] was 128 µM, the “SC and OC forms of plasmid DNA” value [1] was “prevented the radiation-induced damage to plasmid DNA in a concentration-dependent manner” and the “ClO^− scavenging potency” value [2] was “comparable potency”. For the same compound, the “Radioprotection in calf thymus DNA fragmentation assay at low concentrations” value [3] was “strong radioprotection characteristics even at low concentrations”, the “High mol. wt. DNA form after radiation exposure” value (shortened to “High mol. wt. DNA form”) [3] was “radioprotective properties” and the “Radiation-induced generation of low mol. wt. fragments” value [3] was “completely prevented”. For the same compound, the “Radiation induced generation of low mol. wt. fragments” value [3] was “completely prevented”.

With `O=C1OC[C@H](Cc2cccc(O)c2)[C@H]1Cc1cccc(O)c1` [EL, enterolactone] the DNA adduct levels [4] was “decreased” and the “Radioprotective properties of SDG and metabolites compared” value [3] was “equipotent”.

In the case of `O=c1c(O)c(-c2ccc(O)c(O)c2)oc2cc(O)cc(O)c12` [quercetin], the “Hypochlorite-induced damage to genomic DNA” value [5] is reported as “comparable”.

For `COc1cc(CC(CO)C(CO)Cc2ccc(O)c(OC)c2)ccc1O` (centres unmarked) [SECO, 2,3-bis (3-methoxy-4-hydroxybenzyl) butane-1,4-diol], the “Radioprotective properties of SDG and metabolites compared” value [3] was “equipotent”.

For `COc1cc(C[C@@H](CO[C@@H]2O[C@H](CO)[C@@H](O)[C@H](O)[C@H]2O)[C@H](CO[C@@H]2O[C@H](CO)[C@@H](O)[C@H](O)[C@H]2O)Cc2ccc(O)c(OC)c2)ccc1O` [SDG (commercial), Secoisolariciresinol Diglucoside], the EC50 [1] was 98.4 µM, the “ClO^− scavenging potency” value [2] was “comparable potency” and the “High mol. wt. DNA form” value [3] was “radioprotective properties”.

With `COc1cc(C[C@H](CO[C@@H]2O[C@H](CO)[C@@H](O)[C@H](O)[C@H]2O)[C@@H](CO[C@@H]2O[C@H](CO)[C@@H](O)[C@H](O)[C@H]2O)Cc2ccc(O)c(OC)c2)ccc1O` [SDG (S,S), secoisolariciresinol diglucoside] the EC50 [1] was 142 µM, the “SC and OC forms of plasmid DNA” value [1] was “the proportion of the SC form increased and the density of OC form decreased significantly” and the “ClO^− scavenging potency” value [2] was “comparable potency”. The “Radioprotection in calf thymus DNA fragmentation assay at low concentrations” value [3] was “strong radioprotection characteristics even at low concentrations”, the “High mol. wt. DNA form” value [3] was “the proportion of the high mol. wt. DNA form increased significantly” and the “Radiation-induced generation of low mol. wt. fragments” value [3] was “completely prevented”. For the same compound, the “Radiation induced generation of low mol. wt. fragments” value [3] was “completely prevented”.

In the case of `OC[C@H](Cc1cccc(O)c1)[C@H](CO)Cc1cccc(O)c1` [ED, enterodiol], the DNA adduct levels [4] is reported as “decreased” and the “Radioprotective properties of SDG and metabolites compared” value [3] is reported as “equipotent”.
